According to ChEMBL document CHEMBL3271966, “beta-Adrenergic blocking agents. 17. 1-Phenoxy-3-phenoxyalkylamino-2-propanols and 1-alkoxyalkylamino-3-phenoxy-2-propanols” (J Med Chem, 1977):
The source made the active and inactive calls. No cut-off for these calls is given here.

Legend:
[1] = tested on: Felis catus; assay: Inhibition of isoproterenol-induced tachycardia in anesthetized cat compound administered as an infusion over a period of 30 mins; format: functional
[2] = tested on: Felis catus; assay: Inhibition of isoproterenol-induced vasodepressor response in anesthetized cat compound administered as an infusion over a period of 30 mins; format: organism-based; conditions: in vivo, iv, 0.5 h

SMILES | ED50 ([1]; 0.5 h) [mg/kg] | inhibition (INH) [2] [%] | ED50 [1]
Cc1cccc(OCCNCC(O)COc2ccccc2)c1.Cl (configuration not stated) | 0.116 | 29 | 
COCCNCC(O)COc1ccccc1 (configuration not stated) | 0.13 | 0 | 
COCCNCC(O)COc1ccc(O)cc1 (configuration not stated) | 0.118 | 0 | 
COc1ccc(OCCNCC(O)COc2ccccc2)cc1 (configuration not stated) | 0.064 | 0 | 
Cc1ccc(OCCNCC(O)COc2ccccc2)cc1 (configuration not stated) | 0.179 | 0 | 
CCOCCCNCC(O)COc1ccccc1[N+](=O)[O-].O=C(O)C(=O)O (configuration not stated) | 0.566 | 0 | 
COc1cccc(OC)c1OCCNCC(O)COc1ccccc1.O=C(O)C(=O)O (configuration not stated) | 2.26 | 0 | 
CCOCCNCC(O)COc1ccccc1 (configuration not stated) | 0.047 | 10 | 
Cl.Oc1ccccc1OCCNCC(O)COc1ccccc1 (configuration not stated) | 0.022 | 0 | 
O=C(O)C(=O)O.OC(CNCCOc1ccccc1)COc1ccccc1Cl (configuration not stated) | 1.11 | 38 | 
OC(CNCCOc1ccc(OCc2ccccc2)cc1)COc1ccccc1 (configuration not stated) | 0.534 | 0 | 
CCCc1ccccc1OCCNCC(O)COc1ccccc1.O=C(O)C(=O)O (configuration not stated) | 0.833 | 0 | 
COCCNCC(O)COc1ccc(Cl)cc1 (configuration not stated) |  |  | inactive
OC(CNCCOc1ccc(F)cc1)COc1ccccc1 (configuration not stated) | 0.029 | 58 | 
COc1ccccc1OCC(O)CNCCOc1ccccc1.O=C(O)C(=O)O (configuration not stated) | 0.527 | 0 | 
Cc1cccc(Cl)c1OCCNCC(O)COc1ccccc1.O=C(O)C(=O)O (configuration not stated) | 0.09 | 79 | 
CC(C)OCCNCC(O)COc1ccccc1[N+](=O)[O-].O=C(O)C(=O)O (configuration not stated) | 0.195 | 0 | 
OC(CNCCOc1ccc(Cl)cc1)COc1ccccc1 (configuration not stated) | 0.08 | 0 | 
O=C(O)C(=O)O.OC(CNCCOc1ccccc1Cl)COc1ccccc1 (configuration not stated) | 0.821 | 71 | 
Cl.OC(CNCCCOc1ccccc1)COc1ccccc1 (configuration not stated) | 0.239 | 0 | 
COc1ccccc1OCCNCC(O)COc1ccccc1 (configuration not stated) | 0.063 | 0 | 
Cl.OC(CNCCOc1cccc2ccccc12)COc1ccccc1 (configuration not stated) | 0.231 | 0 | 

SMILES | ED50 ([1]; 0.5 h) [mg/kg] | inhibition (INH) [2] [%] | ED50 [1]
Cc1ccc(OCC(O)CNCCOc2ccccc2)cc1 (configuration not stated) |  |  | inactive
COc1ccccc1OCCNCC(O)COc1ccccc1OC.O=C(O)C(=O)O (configuration not stated) | 0.539 | 60 | 
COCCNCC(O)COc1ccccc1C#N (configuration not stated) | 0.198 | 0 | 
OC(CNCCOc1ccccc1)COc1ccccc1 (configuration not stated) | 0.054 | 0 | 
OC(CNCCOc1ccccc1)COc1ccccc1Br (configuration not stated) | 0.3 | 0 | 
Cc1ccccc1OCC(O)CNCCOc1ccc(C(N)=O)cc1 (configuration not stated) [TOLAMOLOL] | 0.133 | 81 | 
Cc1ccccc1OCCNCC(O)COc1ccccc1 (configuration not stated) | 0.031 | 0 | 
O=C(O)C(=O)O.OC(CNCCOc1c(Cl)cccc1Cl)COc1ccccc1 (configuration not stated) | 0.402 | 11 | 
COc1ccccc1OCCCNCC(O)COc1ccccc1.O=C(O)C(=O)O (configuration not stated) | 0.721 | 15 | 
C=CCc1ccccc1OCCNCC(O)COc1ccccc1.O=C(O)C(=O)O (configuration not stated) | 0.75 | 33 | 
OC(CNCCOc1ccccc1)COc1ccc(OCc2ccccc2)cc1 (configuration not stated) |  |  | inactive
COc1ccccc1OC(C)CNCC(O)COc1ccccc1.O=C(O)C(=O)O (configuration not stated) | 0.014 | 0 | 
COCCNCC(O)COc1cccc2ccccc12 (configuration not stated) |  |  | inactive
OC(CNCCOc1cccc(Cl)c1)COc1ccccc1 (configuration not stated) | 0.375 | 36 | 
CC(CNCC(O)COc1ccccc1)Oc1ccccc1 (configuration not stated) | 0.051 | 0 | 
Oc1ccc(OCC(O)CNCCOc2ccccc2)cc1 (configuration not stated) | 0.031 | 78 | 
CCOCCCNCC(O)COc1ccccc1 (configuration not stated) | 0.066 | 0 | 
Cc1cccc(OCC(O)CNCCOc2ccccc2)c1.Cl (configuration not stated) | 1.76 | 33 | 
OC(CNCCOc1ccccc1F)COc1ccccc1 (configuration not stated) | 0.081 | 0 | 
Cc1ccccc1OCC(O)CNCCOc1ccccc1.Cl (configuration not stated) | 0.284 | 12 | 
COCCNCC(O)COc1ccccc1[N+](=O)[O-] (configuration not stated) | 0.293 | 29 | 
